# Data as given in patent publication US5171573A, “4^G -alpha-D-glucopyranosyl rutin, and its preparation and uses” (Kabushiki Kaisha Hayashibara Seibutsu Kagaku Kenkyujo, priority 1989, dated 1992).
# Legend:
# [1] = Physical properties (hygroscopicity, acidity in aqueous solution); type: physicochemical
# [2] = tested on: 7-week old dd mice; experiment: Acute toxicity, oral, 7-week old dd mice
# [3] = Antioxidant activity on powdered peanut butter (peroxide value during standing at 35° C.)
# Description: 4^G -Alpha-D-glucopyranosyl rutin was tested for antioxidant activity on powdered peanut butter which is used an example of fatty food substances highly susceptive to oxidation. […] The mixture was placed in a tray, sealed, solidified by allowing it to stand at 35° C. for 1 day, and prepared into a powder which was then placed in aluminum cups and allowed to stand in a 35° C. incubator without sealing. During the standing, the contents in the aluminum cups were periodically checked for their peroxide value. […] As the control, a group with no antioxidant was tested similarly as above.
# [4] = Solubility in solvents / water-solubility; type: physicochemical
# Description: Soluble in methanol and ethanol. […] One ml water dissolves about 4.3 g of the present substance at 25° C. Only 1 g rutin (control) dissolves in 8 liters of water.
# [5] = tested on: alpha-glucosidase derived from pig liver; experiment: Hydrolysis using an alpha-glucosidase derived from pig liver; type: biochemical
# From the text: ii) Hydrolysis using an alpha-glucosidase derived from pig liver yields 1 mole of glucose per mole of rutin.
# [6] = Stability in aqueous solution; type: physicochemical; details: pH 3-7, aqueous solution
# [7] = ambient temperature, prior art; cited from earlier work
smiles,measurement,setting,value
C[C@@H]1O[C@@H](OC[C@H]2O[C@@H](Oc3c(-c4ccc(O)c(O)c4)oc4cc(O)cc(O)c4c3=O)[C@H](O)[C@@H](O)[C@@H]2O[C@H]2O[C@H](CO)[C@@H](O)[C@H](O)[C@H]2O)[C@H](O)[C@H](O)[C@H]1O [4^G -alpha-D-glucopyranosyl rutin],acidity in aqueous solution,[1]; aqueous solution,Neutral or slightly acidic
same,hygroscopicity / deliquescence,"[1]; powder, purity about 99.8%",Non-hygroscopic and non-deliquescent
same,"acute toxicity, in words","[2]; 7-week old dd mice, powder of Example A-3",extremely low in toxicity
same,acute toxicity: dose up to which no mouse died,"[2]; 7-week old dd mice, powder of Example A-3, higher dose was difficult",> 5 g
same,"acute toxicity, in words","[2]; dd mice, high-purity powder of Example A-4, same result as Example A-3 powder",extremely low
same,peroxide value,[3]; 0 days,1.78 meq/kg
same,peroxide value,[3]; 8 days,5.53 meq/kg
same,peroxide value,[3]; 27 days,14.6 meq/kg
same,peroxide value,[3]; 42 days,23.4 meq/kg
same,peroxide value,[3]; 55 days,32.5 meq/kg
same,Solubility in solvent: 0.1N hydrochloric acid,[4],Readily soluble
same,Solubility in solvent: 0.1N sodium hydroxide,[4],Readily soluble
same,Solubility in solvent: acetic acid,[4],Readily soluble
same,Solubility in solvent: chloroform,[4],Hardly soluble
same,Solubility in solvent: ethanol,[4],Soluble
same,Solubility in solvent: ethyl acetate,[4],Hardly soluble
same,Solubility in solvent: methanol,[4],Soluble
same,Solubility in solvent: water,[4],Readily soluble
same,solubility improved as compared to that of rutin,[4],about thirty thousand
same,solubility,[4]; water,~4300 mg/mL
same,glucose yielded on enzymatic hydrolysis,[5],1 mole of glucose per mole of rutin
same,Stability in aqueous solution,[6],Superiorily stable
C[C@@H]1O[C@@H](OC[C@H]2O[C@@H](Oc3c(-c4ccc(O)c(O)c4)oc4cc(O)cc(O)c4c3=O)[C@H](O)[C@@H](O)[C@@H]2O)[C@H](O)[C@H](O)[C@H]1O [rutin],Solubility in 8 liters of water,[4]; 8 liters of water (control),1 g
same,water-solubility,[7],about 0.01 w/v %
